Test systems include SK-MEL-2; HCC 2998; MDA-MB-435; OVCAR-8; SF-268; U-251; TK-10; HOP-62; MDA-N; K562; BT-549; HCT-15; SK-MEL-5; HCT-116; A549; SK-OV-3; NCI-H460; NCI-H226; PC-3; KM-20L2.
What all share (assay): growth of human tumour cells (NCI), 48 h

SMILES strings stand for the structures.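 Compound exposure: 48 hours, 5 concentrations, 96-well plates. GI50 = concentration required for 50% inhibition of growth.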 Activity calls are given as the source filed them. Cut-off read from the data, not from the text of the source: active = GI50 up to about 1.1 µM and inactive = higher. Residues, ends and D or L forms follow the SMILES beside them. *: point of attachment. Boc = CC(C)(C)OC(=O)*; Bz = O=C(c1ccccc1)*

Take `C[n+]1cn(-c2nc3ccccc3nc2[N-]S(=O)(=O)c2ccccc2)c2ccccc21`: the GI50 with SK-MEL-2, in the test on HCC 2998, with MDA-MB-435, with OVCAR-8, with SF-268 and in the test with U-251 was > 100 µM (inactive) each time. For the same molecule, the GI50 in the test on TK-10 is > 100 µM (inactive); in the test with HOP-62, > 100 µM (inactive); in the test with MDA-N, > 100 µM (inactive); in the test on K562, > 100 µM (inactive); in the test on BT-549, > 100 µM (inactive); in the test on HCT-15 it was above 100 µM. The GI50 in the test on SK-MEL-5, in the test on HCT-116, in the test with A549, with SK-OV-3, in the test with NCI-H460 and with NCI-H226 was > 100 µM (inactive) in each case. For the same molecule, the GI50 with PC-3 was > 100 µM (inactive).

For the molecule `CC(=O)OC1COC(N2C(=O)C(=O)c3c(C)cc(Cl)nc32)C(OC(C)=O)C1OC(C)=O` (stereo not given), the GI50 with SK-MEL-2, in the test on OVCAR-8, with SF-268, in the test on U-251, with TK-10 and with HOP-62 was > 100 µM (inactive) each time. The GI50 with KM-20L2 was > 100 µM (inactive); in the test on K562, > 100 µM (inactive); with HCT-15 it was above 100 µM; in the test on SK-MEL-5 it was > 100 µM (inactive); in the test on HCT-116 it was > 100 µM (inactive); with A549 it was > 100 µM (inactive). In addition, the GI50 with NCI-H460 and with NCI-H226 was > 100 µM (inactive) each time.

As to `O=C(c1ccccc1)c1c(-c2ccccc2)n(-c2ccccc2)[nH]c(=O)c1=O`, the GI50 in the test with SK-MEL-2 is 24 µM (inactive); in the test with HCC 2998 it was > 100 µM (inactive); with MDA-MB-435, 28.2 µM (inactive); with OVCAR-8 it was 46 µM (inactive); with SF-268, 48.6 µM (inactive); in the test with U-251, 44.5 µM (inactive). Besides, the GI50 is 42.5 µM (inactive) in the test with TK-10; 28.8 µM (inactive) in the test with HOP-62; 50.1 µM (inactive) with MDA-N; 14.8 µM (inactive) in the test with K562; 13.7 µM (inactive) in the test on BT-549; 78.2 µM with HCT-15. Also, the GI50 in the test on SK-MEL-5 was > 100 µM (inactive); in the test on HCT-116 it was > 100 µM (inactive); in the test with A549, > 100 µM (inactive); in the test with SK-OV-3, 34.2 µM (inactive); with NCI-H460, 44.7 µM (inactive); in the test on NCI-H226, 16.5 µM (inactive). For the same molecule, the GI50 in the test with PC-3 was 18.9 µM (inactive).

For `COC1CC(C)(N)C(O)C(C)O1` (stereo not given), the GI50 with SK-MEL-2, with HCC 2998, in the test with MDA-MB-435, in the test with OVCAR-8, in the test with SF-268 and in the test on U-251 was > 100 µM (inactive) each time. The GI50 was > 100 µM (inactive) in the test with TK-10; > 100 µM (inactive) with HOP-62; > 100 µM (inactive) in the test on MDA-N; > 100 µM (inactive) in the test on K562; > 100 µM (inactive) in the test on BT-549; above 100 µM with HCT-15. The GI50 in the test with SK-MEL-5, with HCT-116, in the test with A549, in the test with SK-OV-3, with NCI-H460 and with NCI-H226 was > 100 µM (inactive) each time. Further, the GI50 with PC-3 was > 100 µM (inactive).

`CC(NC(=O)C(Cc1ccc(OC(=O)c2ccccc2)cc1)NC(=O)OC(C)(C)C)C(=O)NC(Cc1ccccc1)C(=O)NCC(N)=O` (stereo not given) (Boc-Y(Bz)AFG-NH2; configuration not given here): the GI50 with SK-MEL-2 was 17.9 µM (inactive); in the test with HCC 2998, 20.2 µM (inactive); with MDA-MB-435 it was 21.7 µM (inactive); in the test with OVCAR-8, 24.7 µM (inactive); in the test on SF-268, 19.6 µM (inactive); in the test with U-251, 17.8 µM (inactive). Also, the GI50 with TK-10 is 20.8 µM (inactive); in the test on HOP-62 it was 14.9 µM (inactive); in the test with MDA-N it was 25.8 µM (inactive); in the test with K562, 25.8 µM (inactive); with BT-549 it was 19 µM (inactive); with HCT-15, 53 µM. For the same molecule, the GI50 in the test on SK-MEL-5 was 26.3 µM (inactive); in the test with HCT-116 it was 27.5 µM (inactive); in the test with A549, 23.4 µM (inactive); with SK-OV-3 it was 19.2 µM (inactive); with NCI-H460, 18.3 µM (inactive); in the test on NCI-H226, 20.9 µM (inactive). For the same molecule, in the test on PC-3, the GI50 is 18 µM (inactive).

In the case of `Cc1c2c(OCC(O)CN3CCN(c4ccccc4)CC3)nn(C)c(=O)c2c(C)n1-c1ccccc1` (stereo not given), the GI50 is 17.9 µM (inactive) with SK-MEL-2; 29.7 µM (inactive) in the test on HCC 2998; 29.4 µM (inactive) in the test on MDA-MB-435; 33 µM (inactive) with OVCAR-8; 26.2 µM (inactive) in the test on SF-268; 16.6 µM (inactive) in the test with U-251. Besides, the GI50 was 47.5 µM (inactive) in the test on TK-10; 39.6 µM (inactive) in the test on HOP-62; 19.1 µM (inactive) in the test with MDA-N; 27 µM (inactive) in the test with K562; 21.9 µM (inactive) in the test on BT-549; 20.3 µM with HCT-15. The GI50 in the test on SK-MEL-5 was 16.6 µM (inactive); in the test with HCT-116 it was 17.5 µM (inactive); with A549 it was 24.7 µM (inactive); in the test on SK-OV-3, 43 µM (inactive); in the test on NCI-H460 it was 25 µM (inactive); in the test with NCI-H226, 23.2 µM (inactive). The GI50 in the test with PC-3 was 22 µM (inactive).

As for `COC(=O)C1=NN2c3ccccc3CN([C@@H](C)c3ccccc3)C(=O)[C@H]2[C@@H]1C`, the GI50 is 35.9 µM (inactive) in the test with SK-MEL-2; 24.7 µM (inactive) in the test with HCC 2998; 32.1 µM (inactive) in the test on MDA-MB-435; 34.7 µM (inactive) in the test with OVCAR-8; 40.3 µM (inactive) in the test with SF-268; 42 µM (inactive) in the test on U-251. The GI50 in the test on TK-10 was 50.1 µM (inactive); with HOP-62, 52.1 µM (inactive); with MDA-N, 34.5 µM (inactive); in the test with K562 it was 7.13 µM (inactive); in the test with BT-549, 24.7 µM (inactive); with HCT-15, 43.9 µM. Further, the GI50 in the test with SK-MEL-5 is 12.6 µM (inactive); in the test on HCT-116 it was 33.7 µM (inactive); in the test with A549, 29.4 µM (inactive); in the test on SK-OV-3, 62.5 µM (inactive); in the test on NCI-H460 it was 38.1 µM (inactive); in the test on NCI-H226, 25.9 µM (inactive). For the same molecule, in the test with PC-3, the GI50 was 23.8 µM (inactive).

As to `COc1ccc2c(c1OC)C(=O)C2`, the GI50 in the test on SK-MEL-2, with OVCAR-8, in the test with SF-268, with U-251, in the test with TK-10 and with HOP-62 was > 100 µM (inactive) in each case. Moreover, the GI50 was > 100 µM (inactive) with KM-20L2; > 10 µM (inactive) in the test on K562; above 100 µM in the test with HCT-15; > 100 µM (inactive) in the test on SK-MEL-5; > 100 µM (inactive) in the test with HCT-116; > 100 µM (inactive) with A549. The GI50 in the test with SK-OV-3, in the test with NCI-H460 and in the test on NCI-H226 was > 100 µM (inactive) each time.

As for `Cn1/c(=N\N=C2\C=C3CCCCC3(C)CC2)sc2ccccc21` (stereo not given), the GI50 with SK-MEL-2, in the test with HCC 2998, with MDA-MB-435, in the test on OVCAR-8, with SF-268 and in the test on U-251 was > 100 µM (inactive) in each case. Also, the GI50 in the test with TK-10 was > 100 µM (inactive); in the test with HOP-62, > 100 µM (inactive); in the test on MDA-N, > 100 µM (inactive); with K562, > 100 µM (inactive); in the test on BT-549, > 100 µM (inactive); in the test on HCT-15, above 100 µM. The GI50 in the test on SK-MEL-5, in the test on HCT-116, in the test with A549, in the test with SK-OV-3, with NCI-H460 and in the test on NCI-H226 was > 100 µM (inactive) each time. Moreover, the GI50 with PC-3 was > 100 µM (inactive).

As for `ON[C@H]1C[C@@H](n2cnc3c(NC4CC4)ncnc32)[C@H](O)[C@@H]1O`, the GI50 in the test with SK-MEL-2, in the test on HCC 2998, in the test on MDA-MB-435, in the test with OVCAR-8, in the test with SF-268 and in the test on U-251 was > 100 µM (inactive) throughout. Besides, the GI50 in the test with TK-10 was > 100 µM (inactive); in the test on HOP-62, > 100 µM (inactive); with MDA-N, > 100 µM (inactive); in the test on K562, > 100 µM (inactive); in the test with BT-549 it was > 100 µM (inactive); in the test with HCT-15, above 100 µM. The GI50 in the test on SK-MEL-5, in the test on HCT-116, with A549, in the test on SK-OV-3, in the test on NCI-H460 and in the test on NCI-H226 was > 100 µM (inactive) throughout. For the same molecule, the GI50 with PC-3 was > 100 µM (inactive).

In the case of `CC1(c2ccc(Cl)cc2)N=C(NCCO)c2ccccc21` (stereo not given), the GI50 is 18.2 µM (inactive) in the test on SK-MEL-2; 12.2 µM (inactive) with HCC 2998; 12.2 µM (inactive) in the test on MDA-MB-435; 51.8 µM (inactive) in the test on OVCAR-8; 42.9 µM (inactive) in the test on SF-268; 16.9 µM (inactive) with U-251. The GI50 in the test with TK-10 is 41.4 µM (inactive); with HOP-62 it was 25.1 µM (inactive); in the test on MDA-N it was 10.7 µM (inactive); with K562, 6.61 µM (inactive); in the test on BT-549, 42 µM (inactive); in the test on HCT-15, 26.9 µM. Besides, the GI50 is 14.8 µM (inactive) in the test with SK-MEL-5; 5.37 µM (inactive) in the test with HCT-116; 23.7 µM (inactive) in the test with A549; 88.7 µM (inactive) in the test with SK-OV-3; 13.3 µM (inactive) in the test on NCI-H460; 11.1 µM (inactive) in the test on NCI-H226. Besides, in the test with PC-3, the GI50 is 32.7 µM (inactive).

These data come from ChEMBL document CHEMBL1201862, “PubChem BioAssay data set” (2004).
